Measured values as given in EP2710378B1, “METHOD TO PROGNOSE VIRAL INFECTION BY MEASURING T CELL RESPONSE OR AUTO-ANTIBODIES TO APOPTOTIC EPITOPES” (Università degli Studi di Roma "La Sapienza", priority 2011, dated 2012).

Tested on: CD8+pentamer+ TEM cells
Experiment: Cross-presentation of apoptotic cells
Assay type: cell-based, patients with acute HCV infection
Conditions: DCs pulsed with apoptotic T cells previously treated with the inhibitor; five independent patients
Procedure: […]. Then, cells were induced to apoptosis by incubation with 500 ng/ml anti-Fas (anti-CD95 mAb [clone CH11], Upstate Biotechnology) for at least 6 h. Apoptotic cells were determined by staining with Annexin- V (ApoAlert Apoptosis Kit, Clontech Laboratories Inc), PI (Sigma-Aldrich) and flow-cytometry analysis. PBMCs were double-stained with pentamers and mAb to CD8 and cultured with iDCs that had been pulsed or not with apoptotic cloned T cells. After 6-8 h, cells were tested for their capacity to produce IL-17 and IFN-γ by intracellular cytokine staining (ICS) as described above. Cells were washed, acquired with a FACSCanto flow cytometer and analyzed with FACSDiva analysis software (Becton Dickinson) or FlowJo software (Treestar).
It is for interest the finding that fresh apoptotic epitope-specific CD8^+pentamer^+ TEM cells promptly produced IFN-γ or IL-17 ex vivo within a few hours of contact with DCs that had been pulsed with apoptotic T cells (i.e., through the cross-presentation mechanism) (Figure 25A,B). […] This phenomenon was confirmed in five independent patients (Figure 25B). The frequencies of apoptotic epitope-specific CD8^+ T cells (but not those of viral epitope-specific CD8^+ T cells [data not shown]) correlated with the number of circulating apoptotic T cells (Figure 25C). […]

SMILES: COC(=O)CC[C@H](NC(=O)[C@H](CC(=O)OC)NC(=O)OCc1ccccc1)C(=O)N[C@H](C(=O)N[C@@H](CC(=O)OC)C(=O)CF)C(C)C [C3I, Z-DEVD-FMK]
- IFN-γ or IL-17 production: marked decrease
